One test has as its target T1, mKCNQ2 channels (Mus musculus, UniProt Q9Z351).
T1 construct: expressed in transfected cells
Description: Whole-cell patch-clamp, HEK 293 stable cell line expressing mKCNQ2 channels. It counts as cell-based. The note with it: HEK 293 mKCNQ2, Hill fit; for EC50: @ −40 mV.

In test [1] the target is cloned mouse KCNQ2 (mKCNQ2) (Mus musculus, UniProt Q9Z351). Description: KCNQ oocyte two-electrode voltage clamp, whole-cell outward current. It counts as cell-based. The note with it: 10 μM; single holding potential (−40 μM [sic]); Xenopus oocytes. The procedure: The ability of compounds described in the present invention to open KCNQ channels and increase whole-cell outward (K^+) KCNQ-mediated currents was assessed under voltage-clamp conditions by determining their ability to increase cloned mouse KCNQ2 (mKCNQ2)-mediated, heteromultimeric KCNQ2/3 (mKCNQ2/hKCNQ3)-mediated, and human KCNQ5 (hKCNQ5)-mediated outward currents heterologously expressed in Xenopus oocytes. Oocytes were prepared and injected using standard techniques; each oocyte was injected with approximately 50 nl of mKCNQ2, or hKCNQ5 cRNA. In the case of mKCNQ2/h3 heteromultimeric channel expression, equal amounts (25-50 nL) of each cRNA were co-injected. […] Following injection, oocytes were maintained at 17° in ND96 medium consisting of (in mM): NaCl, 90; KCl, 1.0; CaCl2, 1.0; MgCl2, 1.0; HEPES, 5.0; pH 7.5. Horse serum (5%) and penicillin/streptomycin (5%) were added to the incubation medium. Recording commenced 2-6 days following mRNA injection. Prior to the start of an experiment oocytes were placed in a recording chamber and incubated in Modified Barth's Solution (MBS) consisting of (in mM): NaCl, 88; NaHCO3, 2.4; KCl, 1.0; HEPES, 10; MgSO4, 0.82; Ca(NO3)2, 0.33; CaCl2, 0.41; pH 7.5.
Sequence of cloned mouse KCNQ2 (mKCNQ2) (Q9Z351 whole entry): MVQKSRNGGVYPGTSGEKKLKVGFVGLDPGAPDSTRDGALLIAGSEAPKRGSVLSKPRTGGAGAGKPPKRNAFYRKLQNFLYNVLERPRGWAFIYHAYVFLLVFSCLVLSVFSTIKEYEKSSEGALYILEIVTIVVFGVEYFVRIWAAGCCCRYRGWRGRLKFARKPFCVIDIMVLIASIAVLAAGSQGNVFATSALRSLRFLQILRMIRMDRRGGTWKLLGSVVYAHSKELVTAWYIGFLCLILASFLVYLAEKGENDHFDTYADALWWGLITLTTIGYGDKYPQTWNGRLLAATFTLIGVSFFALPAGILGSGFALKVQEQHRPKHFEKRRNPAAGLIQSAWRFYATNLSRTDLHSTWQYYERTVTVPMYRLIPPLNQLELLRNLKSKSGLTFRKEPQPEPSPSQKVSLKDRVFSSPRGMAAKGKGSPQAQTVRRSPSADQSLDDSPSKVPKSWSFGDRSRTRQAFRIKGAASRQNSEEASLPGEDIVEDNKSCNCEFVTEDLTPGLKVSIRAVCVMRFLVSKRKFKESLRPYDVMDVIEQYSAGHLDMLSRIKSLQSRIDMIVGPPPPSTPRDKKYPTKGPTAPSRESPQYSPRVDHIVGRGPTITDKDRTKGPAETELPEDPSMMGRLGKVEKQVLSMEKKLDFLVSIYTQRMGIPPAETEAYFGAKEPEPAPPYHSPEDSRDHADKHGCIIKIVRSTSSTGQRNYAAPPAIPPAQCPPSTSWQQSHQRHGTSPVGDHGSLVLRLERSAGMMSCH
Oocytes were impaled with electrodes (1-2 MΩ) and standard 2-electrode voltage clamp techniques were employed to record whole-cell membrane currents. Recordings were accomplished using standard two-electrode voltage clamp techniques [Stuhmer, W., et al., Methods in Enzymology, Vol. 207: 319-339 (1992)]. Voltage-clamp protocols typically consisted of a series of voltage steps 1-5 sec duration, in +10 mV steps from a holding potential of −90 mV to a maximal potential of +40 mV; records were digitized at 5 kHz and stored on a computer using pClamp data acquisition and analysis software (Axon Instruments). Compounds were evaluated at a single concentration and at a single holding potential (−40 μM); the effect of the selected compounds of Formula I on KCNQ2 current was expressed as the percent of control current and is listed in Table I.

In test [2] the test system is streptozoticin-induced tactile allodynia, Sprague Dawley rats. Description: Diabetic model of neuropathic pain (streptozoticin and von Frey test). The note with it: 10 mg/kg, i.v.; von Frey thresholds over 90 min; STZ diabetic model. Type of test: in vivo, rat. Here is the method:
To test agents for activity against systemic polyneuropathy nerve injury-induced tactile allodynia, animals were treated with streptozoticin (STZ) to create a diabetic condition by selective cytotoxic action upon pancreatic β-islet cells that produce insulin following the method of Courteix, et al. (Courteix C., et al., (1993) Pain, April;53(1):81-8). In brief, male Sprague Dawley rats (wt. 200-275 g) received an injection of STZ (75 mg/kg, i.p.) and diabetes was confirmed three weeks after STZ injection by measurement of tail vein blood glucose levels. After 3-4 weeks, paw withdrawal to light touch was assessed as described by Chaplan et al. (Chaplan S. R., et al., (1994) J Neurosci Methods, July;53(1):55-63). In brief, rats are placed in a plastic cage with a wire mesh bottom and allowed to acclimate for 15-30 minutes, until cage exploration and grooming stops. The plantar surface of each hind paw is touched with a series of von Frey hairs with varying stiffness requiring a known force to buckle to determine the nociceptive threshold. Adult male Sprague Dawley rats (avg. wt. 300 g) were tested in the present study. After acclimation, baseline von Frey thresholds were assessed for the injured hindpaw at -15 min. All test compounds were delivered at 0 min by the intravenous (i.v.) route in a volume of 0.5-2 ml/kg. […] Animals were tested in one of the following 4 treatment conditions: […] Following drug administration, von Frey thresholds are measured at 15, 30, 60 and 90 min. Data were analyzed by a 2-way repeated measures analysis of variance followed by Dunnett's test (p<0.05). Experimenters were kept blind to the treatment condition of rats they tested. […] Specifically, drug effects can be described in terms Δ% MPE according to the following equation: {[…] under the curve for von Frey thresholds of the drug-treated group; AUCvehicle=area under the curve for von Frey thresholds in the vehicle group; Time=duration of post-drug testing period (90 min); and Max=maximum von Frey threshold (15 g).

T1 sequence (Q9Z351 whole entry): as above

Regarding `C[C@H](NC(=O)/C=C/c1ccc(F)cc1)c1ccc2ccccc2c1` [Example 1, (S)-3-(4-Fluoro-phenyl)-N-(1-naphthalen-2-yl-ethyl)acrylamide], the midpoint of the response at mKCNQ2 channels, the EC50, lay at 9.2 µM. The Emax at mKCNQ2 channels (HEK293, read-out: Imax (%)) was 237%.

Turning to `C[C@H](NC(=O)/C=C/c1ccccc1)c1cccc(N2CCOCC2)c1` [Example 82, (S)-3-Phenyl-N-[1-(3-morpholin-4-yl-phenyl)ethyl]acrylamide], in test [1], the activity at 10 µM worked out at 197%. In test [2], the “AUC (Δ% MPE)” value is 23 (10 mg/kg, i.v.) Δ% MPE.

The compound `C[C@H](NC(=O)/C=C/c1ccc(F)cc1)c1ccc(F)c(N2CCOCC2)c1` [Example 169, (S)-N-[1-(4-Fluoro-3-morpholin-4-yl-phenyl)-ethyl]-3-(4-fluoro-phenyl)-acrylamide] had an EC50 at mKCNQ2 channels of 1 µM. Also, the “AUC (Δ% MPE)” value in test [2] is reported as 12 (10 mg/kg, i.v.) Δ% MPE.
